Several values for one entry are separate records, joined by “and”; a condition that tells them apart may be missing. Identical values can stand only once.
Columns and labels:
Format in all cases: in vivo
[1] = tested on: Neotropical Brown Stink Bug (Euschistus heros, EUSCHE, BSB); experiment: Bioassay 5: neotropical brown stink bug, artificial agar diet
Protocol: Stock solutions were prepared with F1 as well as for each of the active ingredients individually. Test solutions were prepared from the stock solutions. Test solutions were prepared containing F1, the individual active ingredients, and mixtures of F1 with each of the active ingredients. The test solution for F1 and the individual active ingredients were prepared by adding 30 μL of the stock solution to a single well of a 96 well plate, then adding 30 μL of DMSO, followed by the addition of 140 μL of a 2:1 mixture of acetone:water as a diluent to create a 0.03% (w/v) solution. […]
The test solutions were tested against BSB using the following procedure: an artificial agar diet (2% agar, 12% sucrose) was distributed in 48 well plastic plates (Fisher Scientific™). […] The total number of living BSB nymphs was recorded four days after application. […] Percent control was measured using Abbott's correction formula (W. S. Abbott, J. Econ. Entomol. 18 (1925), pp. 265-267) as follows:
where X=No. of live nymphs on solvent check and Y=No. of live nymphs on treated bean segments. In Table B5 the “Expected % Control” was calculated using the method described in Colby S. R., Weeds, 1967, 15, 20-22. […]

[2] = tested on: Sweet Potato Whitefly (Bemisia tabaci, BEMITA, SPW); experiment: Bioassay 2: sweet potato whitefly, cotton seedling foliar spray; conditions: F1 alone
[3] = tested on: Corn Earworm (Helicoverpa zea, HELIZE, CEW); experiment: Bioassay 7: corn earworm, artificial diet, 96 well plate
[4] = tested on: Western Corn Rootworm (Diabrotica virgifera virgifera, DIABVI, WCR); experiment: Bioassay 8: western corn rootworm, soil drench, corn root protection; conditions: F1 alone, DIABVI (CRW), 10 mL soil drench, corn nodal root length after 13 days
Protocol: Corn seeds were planted in steam pasteurized soil filled greenhouse pots. Western corn rootworm Diabrotica virgifera virgifera eggs supplied from the Corteva Agriscience in Johnston, IA US, were suspended in a 0.08% agar solution added into the soil. Stock solutions of F1 and active ingredients were prepared at a concentration of either 250 or 500 ugai/10 mL for F1 and active ingredients at the ratios of (F1:AI) 1:0.004; 1:0.01; 1:0.02; 1:0.04; 1:0.08; 1:0.1; 1:0.15; 1:0.2; 1:0.4; 1:2; or 1:4, using a 1:1 solution of acetone:water as a diluent. A soil application of solutions were applied as a 10 mL drench over the soil. Plants were grown in the greenhouse for 13 days at 25 C after which the roots were removed from the soil, washed, and measured to determine the length of the median nodal roots. The measured lengths were compared to the infested and un-infested untreated checks to determine the mean percent control offered to protect the corn roots.

[5] = tested on: Soybean Looper (Chrysodeixis includens, PSEPIN, SBL); experiment: Bioassay 7: soybean looper, artificial diet, 96 well plate; conditions: CL; F1 alone at 0.000005 wt %
Protocol: (§1) The test solutions were tested against CEW, FAW, BAW, and SBL using the following procedure: an artificial lepidopteran diet (Multispecies Lepidopteran Diet, Southland Products) was distributed in 96 well plate. Twenty μL of test solution was pipetted onto a cell in the bioassay plate. […] Each treatment was replicated 5 times for each species. Approximately five first instar CEW, FAW, BAW, or SBL larva were placed on top of the diet in each cell and was contained with a clear perforated adhesive lid. Test trays were held at approximately 25° C. and ambient relative humidity prior to grading. After five days, the number of cells where all the larvae were dead were recorded as 100% and averaged across all replicates; then the percent control was measured using Abbott's correction formula (W. S. Abbott, J. Econ. Entomol. 18 (1925), pp. 265-267) as follows:
(§2) where X=No. of live larvae on solvent check and Y=No. of live larvae on treated diet. In Table 7 the “Expected % Control” was calculated using the method described in Colby S. R., Weeds, 1967, 15, 20-22. Bioassay 8: Western Corn Rootworm (Diabrotica virgifera virgifera, DIABVI, “WCR”)

[6] = tested on: Fall Armyworm (Spodoptera frugiperda, LAPHFR, FAW); experiment: Bioassay 7: fall armyworm, artificial diet, 96 well plate
Protocol: as §1, §2

[7] = tested on: Beet Armyworm (Spodoptera exigua, LAPHEG, BAW); experiment: Bioassay 7: beet armyworm, artificial diet, 96 well plate

Row | Compound | Average % Control AI ([1]; AI alone, Wt % AI 0.0045, EUSCHE, four days) | Average % Control F1 ([2]; F1 0.1, 7-9 days after treatment) | Average % Control F1 ([2]; F1 10, 7-9 days after treatment) | Average % Control F1 ([3]; F1 alone at 0.00002 wt %) | Average % Control F1 ([3]; F1 alone at 0.00004 wt %) | Average % Control F1 ([4]; UgActive F1 250) | Average % Control F1 ([4]; UgActive F1 500) | Average % Control F1 [5] | Average % Control F1 ([6]; F1 alone at 0.0000025 wt %) | Average % Control F1 ([6]; F1 alone at 0.000005 wt %) | Average % Control F1 ([7]; F1 alone at 0.0000025 wt %) | Average % Control F1 ([7]; F1 alone at 0.00001 wt %) | Average % Control F1 ([1]; F1 alone, Wt % F1 0.0045, EUSCHE nymphs, agar diet, four days after application)
1 | Cc1c(COC(=O)[C@@H]2[C@H](/C=C(\Cl)C(F)(F)F)C2(C)C)cccc1-c1ccccc1 (racemic) [Bifenthrin] | 60.0% |  |  |  |  |  |  |  |  |  |  |  | 
2 | Cc1ccc(COCC(F)(F)F)c(N2C(=O)CS/C2=N\C(=O)Nc2ccc(-c3ncn(-c4ccc(OC(F)(F)F)cc4)n3)cc2F)c1 [F1] |  | 0.0% | 37.4% and 50.1% | 0.0% | 62.5% and 50.0% | 97.8% and 88.8% | 83.9% | 80.0% | 0.0% | 62.5% | 12.5% | 40.0% | 7.1%

Reference: patent US20260182575A1, “MOLECULES HAVING PESTICIDAL UTILITY AND INTERMEDIATES AND PROCESSES RELATED THERETO” (CORTEVA AGRISCIENCE LLC, priority 2022, published 2026)
